The values below come from patent US5098900A, “3(2H)pyridazinone, process for its preparation and anti-allergic agent containing it” (Nissan Chemical Industries Ltd., priority 1984, dated 1992).

One data set concerns SRS-A. Briefly: SRS-A antagonism in guinea-pig ileum (SRS-A-induced contraction). The class given is cell-based. Conditions: 1 min, test compound 5×10^-7 g/ml, isolated guinea-pig ileum; for inhibition at 0.5 µg/mL: Cavia porcellus. The method, then: (i) SRS-A antagonism in quinea-pig ileum
SRS-A antagonism was determined against the contraction induced by SRS-A in isolated guinea-pig ileum. The SRS-A was prepared in accordance with the method of Brocklehurst (J. Physiol., 151, 416, 1960) and Kohno and Parker (J. Immunol., 125, 446, 1980). Adult male guinea-pigs (200-250 g) were sensitized with chick egg albumin (EA), 100 mg subcutaneously and 100 mg intraperitoneally. Three weeks later the animals were killed by a blow on the head and lungs were perfused free of blood with Tyrode solution passed through the right ventricle. Isolated lungs were chopped into pieces (1 mm^3) by a scissors in Tyrode solution and filtrated with gauze, and then 1.0-1.3 g of chopped lung fragments were distributed into individual tubes (9.7 ml of Tyrode solution/tube). EA solution (0.3 ml) at a 3×10^-4 g/ml final concentration was added to the tubes and incubated for 20 min at 37° C., and then the supernatant was used for the SRS-A antagonism.
Assay for SRS-A antagonism was performed as follows: Ileum preparations isolated from male guinea-pig (300-400 g) were suspended under 0.5 g tension in organ baths (5 ml) containing Tyrode solution maintained at 30° C. and gassed with 95% O2 +5% CO2. After the repeated responses to histamine (10^-7 g/ml) was established, the contractile response to SRS-A (0.5 ml) was carried out in the presence of 10^-6 M atropine and 10^-6 M pyrilamine. Test compounds dissolved in 100% dimethyl sulfoxide were added to the organ baths (final concentration of 5×10^-7 g/ml) 1 min prior to the SRS-A addition, and SRS-A-induced contractions were compared with those of control (SRS-A-induced contraction before the treatment). The SRS-A antagonism (%) =[1.0 - (SRS-A-induced contraction in test compound)/control]×100

The test system of data set [1] is antigen-induced anaphylactic bronchoconstriction. Kind of data set: Effect on anaphylactic bronchoconstriction in passively sensitized guinea-pig. The class given is in vivo. The settings on record: 2 mg/kg, i.v. Here is the method:
(iii) Effect on anaphylactic bronchoconstriction in passively sensitized guinea-pig
Male guinea-pigs (350-450 g) were passively sensitized with intravenous (i.v.) injection of 0.125 ml rabbit anti-EA serum (Cappel Laboratories) 1 day preceding the experiment. […] The right jugular vein was cannulated for the administration of the all agents and trachea was cannulated to record total pulmonary resistance. Guinea-pigs were artificially ventilated by a small animal respirator (Shinano, Model SN-480-7) set at a stroke volume of 4-5 ml and a rate of 50 breaths per min. […] The increase in air overflow volume was expressed as a percentage of the maximum bronchoconstriction obtained by clamping off the trachea. Following surgical preparation, the animals were pretreated with indomethacin (1.0 mg/kg, 10 min), pyrilamine (2 mg/kg, 6 min) and propranolol (0.1 mg/kg, 5 min) prior to the EA challenge (0.1 or 10 mg/kg). All test compounds, 2 mg/kg in 3% Tween 80 or 3% PEG-400, were administered 1 min before the EA challenge. Inhibition (%) of bronchoconstriction was determined as follows Inhibition (%)=(1.0% -maximum bronchoconstriction in test/% maximum bronchoconstriction in control) ×100.
In the Table, the dose of EA was 10 mg/kg, and each compound was dissolved or suspended in 3% Tween 80.
In the Table, the dose of EA was 0.1 mg/kg.
*: PEG represents polyethylene glycol400.

The subject of data set [2] is LTD4. Kind of data set: Effect on bronchoconstriction induced by intravenous administration of LTD4. The class given is in vivo, guinea-pig. Conditions: 2 mg/kg, i.v., in Tween 80; LTD4 2 μg/kg i.v. Here is the method:
(iv) Effect on bronchoconstriction induced by intravenous (i.v.) administration of LTD4
Bronchoconstrictions induced by i.v. administration of LTD4 in guinea-pigs (350-450 g) were measured as described in anaphylactic bronchoconstriction. Guinea-pigs were anaesthetized with urethane (1.5 g/kg) and the trachea was cannulated to record total pulmonary resistance. The right jugular vein was cannulated for the administration of the all agents. The guinea-pigs were artificially ventilated by a small respirator set at a stroke volume of 5 ml and a rate of 50 breaths per min. LTD4 (2 μg/kg)-induced bronchoconstriction was shown by the increase in air overflow volume. After the response to histamine (5 μg/kg) was checked, the first response to LTD4 was obtain-d as control. […] Inhibition (%) of the bronchoconstriction was determined as follows: Inhibition (%) =(1.0 -peak value in the second response/peak value in the first response)×100.

The test system of the next data set is LTC4. Kind of data set: LTC4 antagonism in isolated guinea-pig trachea (LTC4-induced contraction). It is filed as cell-based. Conditions: Cavia porcellus, 5 min, read-out: LTC4 antagonism. Here is the method:
(ii) LTC4 and LTD4 antagonisms in guinea-pig trachea
Antagonism for LTC4 and LTD4 were determined in isolated guinea-pig trachea prepared as spiral strip. 10 Tracheal preparations were suspended under 1 g tension in […] and they were incubated for 1 hr prior to use. Contractile responses to LTC4 (2×10^-8 g/ml) and LTD4 (2×10^-8 g/ml) were obtained after the maximal response to histamine (10^-4 M). Test compounds dissolved in 100% dimethyl sulfoxide were added to the organ baths (final concentration of 10^-5 g/ml) 5 min prior to LTC4 and LTD4 addition, and then contractile responses to LTC4 and LTD4 were compared with those of control which was obtained from a paired trachea in the absence of test compounds. LTC4 - and LTD4 -induced contractions were expressed as a percentage of the maximal response to histamine. The antagonism was determined as follows: Antagonism (%)=(1.0-% contraction in test/% contraction in control)×100

The test system of data set [3] is LTD4. Kind of data set: LTD4 antagonism in isolated guinea-pig trachea (LTD4-induced contraction). The class given is cell-based. Conditions: Cavia porcellus, 5 min, test compound 10^-5 g/ml, LTD4 2×10^-8 g/ml. In a few lines: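 Spiral strips of isolated guinea-pig trachea were held at 1 g tension in organ baths and incubated for 1 hr. After a maximal histamine (10^-4 M) response, test compounds in 100% dimethyl sulfoxide were added 5 min before LTD4 (2×10^-8 g/ml). Contraction, as percent of histamine maximum, was compared with a paired untreated control trachea to give antagonism (%).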

For another data set, the system named is ddY strain male mice. Kind of data set: Acute toxicity test, method-(1), oral administration. It is filed as in vivo. Conditions: 300 mg/kg, P.O., 7 days after administration. The method, then: The lethal ratio was determined in ddY strain male mice (4 weeks old) at 7 days after the oral administration of test compounds.
Setting [4] is: test compound 10^-5 g/ml, LTC4 2×10^-8 g/ml, guinea-pig trachea.

Like-named read-outs stand apart in the source and are kept apart here.

Consider `COc1ccc(CNc2cnn(C(C)(C)C)c(=O)c2Cl)cc1` [Compound No. 9], for which the inhibition at 0.5 µg/mL in the data set on SRS-A turned out to be 72%. Moreover, the “Inhibition of anaphylactic bronchoconstriction” value in data set [1] (EA 10 mg/kg, 3% Tween 80) is reported as 35%. Moreover, in the data set with LTD4 [2], the “Inhibition of LTD4-induced bronchoconstriction” value was determined as 38%.

Turning to `Cc1ccc(CNc2cnn(C(C)(C)C)c(=O)c2Cl)cc1` [Compound No. 3], the inhibition at 0.5 µg/mL with SRS-A was determined as 64%. The results for the inhibition at 10 µg/mL in the data set on LTC4 (setting [4]) and in the data set with LTD4 [3] were 42% and 50%, respectively. The “Inhibition of LTD4-induced bronchoconstriction” value in the data set on LTD4 [2] was 60.6%.

Turning to `CCOc1ccc(CNc2cnn(C(C)(C)C)c(=O)c2Cl)cc1` [Compound No. 10], the inhibition at 0.5 µg/mL in the data set on SRS-A worked out at 40%. In addition, the inhibition at 10 µg/mL in the data set with LTC4 (setting [4]) was 50%. Moreover, the “Inhibition of anaphylactic bronchoconstriction” value in data set [1] (EA 10 mg/kg, 3% Tween 80) is on record as 31%. The Lethal ratio in the data set with ddY strain male mice was 0/3.

With `CCOC(=O)c1ccc(CNc2cnn(C(C)(C)C)c(=O)c2Cl)cc1` [Compound No. 52], in the data set with SRS-A, the inhibition at 0.5 µg/mL was 72%. The “Inhibition of anaphylactic bronchoconstriction” value in data set [1] (EA 10 mg/kg, 3% Tween 80) came out at 30%.

On to `CC(C)(C)n1ncc(NCc2ccc(CN3CCOCC3)cc2)c(Cl)c1=O` [compound 33], for which the inhibition at 0.5 µg/mL with SRS-A amounted to 41%. For the same molecule, the inhibition at 10 µg/mL with LTC4 (setting [4]) was found to be 17%.

In the data set with SRS-A, `CCCc1c(OCC(O)COc2ccc3c(=O)cc(C(=O)O)oc3c2CCC)ccc(C(C)=O)c1O` (stereo not shown) [FPL-55712, reference compound] gave an inhibition at 0.5 µg/mL of 88%. In addition, the inhibition at 10 µg/mL in the data set on LTC4 was determined as 100%; with LTD4 [3], 88%. Also, the “Inhibition of anaphylactic bronchoconstriction” value came to 60% in data set [1] (EA 0.1 mg/kg, Tween 80) and 27% in data set [1] (EA 10 mg/kg, 3% Tween 80). In the data set with LTD4 [2], the “Inhibition of LTD4-induced bronchoconstriction” value is 100%.

In the data set on SRS-A, `CCc1ccc(CNc2cnn(C(C)(C)C)c(=O)c2Cl)cc1` [Compound No. 4] returned an inhibition at 0.5 µg/mL of 73%. Moreover, the inhibition at 10 µg/mL with LTC4 (setting [4]) was determined as 55%. Also, the Lethal ratio in the data set with ddY strain male mice is recorded as 0/3.

Turning to `CCCOc1ccc(CNc2cnn(C(C)(C)C)c(=O)c2Cl)cc1` [compound 11], in the data set with SRS-A, the inhibition at 0.5 µg/mL was determined as 74%. Besides, the inhibition at 10 µg/mL in the data set with LTC4 (setting [4]) is 25%. The “Inhibition of anaphylactic bronchoconstriction” value in data set [1] (EA 10 mg/kg, 3% Tween 80) was determined as 21%.

In the data set with SRS-A, `CSc1ccc(CNc2cnn(C(C)(C)C)c(=O)c2Cl)cc1` [compound 21] showed an inhibition at 0.5 µg/mL of 77%. Also, in the data set on LTC4 (setting [4]), the inhibition at 10 µg/mL was 36%.

As for `CC(C)(C)n1ncc(NCc2ccccc2)c(Cl)c1=O` [Compound No. 1], the inhibition at 0.5 µg/mL in the data set on SRS-A turned out to be 14%. For the same molecule, the “Inhibition of LTD4-induced bronchoconstriction” value in the data set on LTD4 [2] is given as 23%.

On to `CC(C)(C)n1ncc(NCc2ccc(Cl)cc2)c(Cl)c1=O` [compound 22], for which the inhibition at 0.5 µg/mL in the data set on SRS-A amounted to 76%. Further, in the data set on LTC4 (setting [4]), the inhibition at 10 µg/mL turned out to be 20%. Besides, the “Inhibition of anaphylactic bronchoconstriction” value in data set [1] (EA 10 mg/kg, 3% Tween 80) amounted to 23%.

`CC(C)(C)n1ncc(NCc2ccc(N3CCOCC3)cc2)c(Cl)c1=O` [compound 30] yielded an inhibition at 0.5 µg/mL with SRS-A of 53%. Further, the inhibition at 10 µg/mL in the data set with LTC4 (setting [4]) worked out at 13%.

In the data set with SRS-A, `Cc1cccc(CNc2cnn(C(C)(C)C)c(=O)c2Cl)c1` [Compound No. 2] registered an inhibition at 0.5 µg/mL of 47%. In the data set with LTC4 (setting [4]), the inhibition at 10 µg/mL is 84%. Moreover, the “Inhibition of anaphylactic bronchoconstriction” value in data set [1] (EA 10 mg/kg, 3% Tween 80) was determined as 21%.

`CN(C)c1ccc(CNc2cnn(C(C)(C)C)c(=O)c2Cl)cc1.Cl` [Compound No. 44, 4-Chloro-5-(4-dimethylaminobenzylamino)-2-t-butyl-3-(2H)pyridazinone hydrochloride] returned an SRS-A antagonism with SRS-A of 55%. For the same molecule, the “Inhibition of anaphylactic bronchoconstriction” value in data set [1] (EA 10 mg/kg, 3% Tween 80) is listed as 72%. The “Inhibition of LTD4-induced bronchoconstriction” value in the data set with LTD4 [2] was 72.5%.

As to `COc1ccc(CNc2cnn(C(C)(C)C)c(=O)c2Cl)cc1OC` [Compound No. 16], in the data set on SRS-A, the inhibition at 0.5 µg/mL was determined as 55%. The inhibition at 10 µg/mL in the data set on LTC4 (setting [4]) turned out to be 96%.

As to `COc1ccc(CNc2cnn(C(C)(C)C)c(=O)c2Cl)cc1C` [Compound No. 12], in the data set with SRS-A, the inhibition at 0.5 µg/mL came out at 73%. Further, in the data set with LTC4 (setting [4]), the inhibition at 10 µg/mL was determined as 67%.
